Patent EP1289507B1, “USE OF AN ALDOSTERONE ANTAGONIST FOR THE TREATMENT OR PROPHYLAXIS OF ALDOSTERONE-MEDIATED PATHOGENIC EFFECTS” (priority 2000, dated 2001)
Like-named read-outs stand apart in the source and are kept apart here.

Experiments:
[1] = tested on: captopril-treated, saline-drinking SHRSP; assay: Protocol 2: Angiotensin II-induced renal damage in captopril-treated saline-drinking SHRSP; assay type: in vivo, male SHRSP/A3N
Procedure: Animals. Studies were conducted in accordance with institutional guidelines using male SHRSP/A3N (generations F-75 to F-78), n = 37, from our local colony. These animals were bred from NIH stock, derived from the SHRSP/A3N substrain described originally by Okamoto and coworkers (Okamoto K et al. Circ. Res. 34 and 35 (suppl I):I-143-I-153.). All animals were housed in a room maintained on a 12:12-h light:dark-cycle and an ambient temperature of 22 ± 1°C in the Animal Care Facility at New York Medical College. Rats were weaned at 4 weeks of age and allowed free access to Purina Lab Chow 5001 (Ralston Purina, St. Louis, MO) and tap water until the initiation of experimental protocols.
SHRSP were placed on Stroke-Prone Rodent Diet (#39-288, Zeigler Bros Inc., Gardners, PA) and 1% NaCl drinking solution ad libitum starting at 8.3 weeks of age. […] Animals were handled and weighed daily. Urine samples were collected for the assessment of proteinuria. Systolic blood pressure and heart rate were measured each week. After 2 weeks of treatment, animals were decapitated, trunk blood was collected into chilled EDTA tubes, and the kidneys were removed, blotted dry, and immediately weighed. Coronal sections of kidney were fixed and later processed for light microscopic evaluation.
Assays and Analyses. Systolic blood pressure and heart rate of awake animals were measured by tail-cuff plethysmography using a Natsume KN-210 manometer and tachometer (Peninsula Laboratories Inc., Belmont, CA). Rats were warmed at 37°C for 10 min and allowed to rest quietly in a Lucite chamber before measurement of blood pressure. Measurements of urine volume were made gravimetrically. Urinary protein concentration was determined by the sulfosalicylic acid turbidity method. Plasma aldosterone was measured by radioimmunoassay using ^125I-aldosterone as a tracer (Coat-a Count Aldosterone, Diagnostic Products Co., Los Angeles, CA).
Histology. Kidneys were preserved in 10% phosphate-buffered formalin. Coronal sections (2-3 µm) were stained with hematoxylin and eosin and examined by light microscopy in a blinded fashion as previously described (Stier CT et al. J Pharmacol Exp Ther (1992) 260:1410-1415). Glomerular damage was categorized as ischemic or thrombotic. Ischemic lesions were defined as retraction of glomerular capillary tufts with or without appreciable mesangiolysis. Glomerular thrombotic lesions were defined as any one of a combination of the following: segmental to global fibrinoid necrosis, focal thrombosis of glomerular capillaries, swelling and proliferation of intracapillary (endothelial and mesangial) and/or extracapillary cells (crescents), and expansion of reticulated mesangial matrix with or without significant hypercellularity. […] Vascular thrombotic lesions were defined as any one or a combination of the following: mural fibrinoid necrosis, extravasation and fragmentation of red blood cells, and luminal and/or mural thrombosis. Proliferative arteriopathy was characterized by proliferation of markedly swollen myointimal cells with swollen round to ovoid vesicular nuclei surrounded by mucinous extracellular matrix ("onion skinning") often resulting in nodular thickening. Vascular damage was expressed as the number of arteries and arterioles with lesions per 100 glomeruli. The presence of casts and tubular (ischemic) retraction and simplification was assessed semiquantitatively.
Statistical Analysis. Significant effects with respect to treatment and time were determined by two-way analysis of variance. Data with only one grouping variable were analyzed statistically by Student's unpaired t tests. When more than two groups were compared, one-way analysis of variance was performed followed by the post-hoc Newman-Keul's multiple comparison test. Data were analyzed using version 2.01 of the GraphPad Prism statistical software package (GraphPad Software Inc., San Diego, CA). P < .05 was considered statistically significant. Data are reported as mean ± SEM.

[2] = Physical stability of solid state forms; assay type: physicochemical; settings: at temperatures below the enantiotropic transition temperature
[3] = tested on: patients with hypertension; assay: Clinical efficacy in hypertension: randomized double-blind study, cuff and ambulatory blood pressure; assay type: in vivo; settings: 100 mg/day (50 BID)
Procedure: A multicenter, randomized, double-blind, parallel group study was conducted in patients with hypertension. […] The study consisted of a two-week pretreatment period for completion of screening procedures and discontinuation of any current antihypertensive medication(s). The screening period was followed by a four-week single-blind placebo lead-in treatment period.
The primary efficacy measure was the change from baseline in cuff diastolic blood pressure measured at trough as compared to placebo. Secondary efficacy measures included changes in cuff assessed trough systolic blood pressure and changes in average 24-hour diastolic and systolic blood pressure assessed by ambulatory blood pressure monitoring. Safety was assessed by conducting routine clinical lab tests, physical exams, ECGs, and monitoring for adverse events.

[4] = tested on: patients with severe heart failure; settings: added to ACE inhibitor plus loop diuretic; cited from earlier work
[5] = tested on: Volume Expanded Hypertensive Rats; settings: averaged for 24 hours after three weeks
[6] = tested on: patients with severe heart failure; settings: NYHA Functional Class IV, enalapril plus diuretics compared to placebo plus diuretics; cited from earlier work

With `C[C@H](CS)C(=O)N1CCC[C@H]1C(=O)O` [Captopril, captopril, reference compound] the “Glomerular damage, Ischemic” value ([1]; Captopril 50 mg/kg/d + vehicle, or CAP, Angiotensin II 25 ng/min + Eplerenone 100 mg/kg/d, 2 weeks) was 0 ± 0 lesions/100 glomeruli, the “Glomerular damage, Thrombotic” value ([1]; as Table A-8B, 2 weeks) was 0±0 lesions/100 glomeruli and the “Glomerular damage, Total” value ([1]; as Table A-8B, 2 weeks) was 0±0 lesions/100 glomeruli. For the same molecule, the “Renal arteriopathy, Proliferative” value ([1]; as Table A-8B, 2 weeks) was 0±0 lesions/100 glomeruli, the “Renal arteriopathy, Thrombotic” value ([1]; as Table A-8B, 2 weeks) was 0±0 lesions/100 glomeruli and the “Renal arteriopathy, Total” value ([1]; as Table A-8B, 2 weeks) was 0±0 lesions/100 glomeruli. The “tubules with ischemic retraction and simplification” value ([1]; captopril plus vehicle, or captopril plus angiotensin II plus eplerenone) was “absent”.
In the case of `COC(=O)[C@@H]1CC2=CC(=O)CC[C@]2(C)[C@@]23O[C@@H]2C[C@@]2(C)[C@@H](CC[C@@]24CCC(=O)O4)[C@H]13` [Form L], the “physical stability relative to Form H” value [2] is reported as “greater physical stability”.
With `CC(=O)S[C@@H]1CC2=CC(=O)CC[C@]2(C)[C@H]2CC[C@@]3(C)[C@@H](CC[C@@]34CCC(=O)O4)[C@H]12` [Spironolactone, spironolactone, reference compound] the “ABPM DBP, adjusted mean change from baseline to final visit” value [3] was -8.7 mm Hg, the “ABPM SBP, adjusted mean change from baseline to final visit” value [3] was -15.8 mm Hg and the “Cuff DBP, adjusted mean change from baseline to final visit” value [3] was -9.5 mm Hg. For the same molecule, the “Cuff SBP, adjusted mean change from baseline to final visit” value [3] was -16.7 mm Hg, the morbidity and mortality [4] was “reduced morbidity and mortality” and the SAP ([5]; 100 mg/kg s.c.) was 171 ± 5 mmHg. The SAP ([5]; 200 mg/kg s.c.) was 170 ± 9 mmHg.
For `CCOC(=O)[C@H](CCc1ccccc1)N[C@@H](C)C(=O)N1CCC[C@H]1C(=O)O` [enalapril], the “reduction of mortality at one year” value [6] is listed as 31%.
